These results are taken from patent publication EP3771713A1 (priority 2019, dated 2021).

The target of one assay is hBChE (Homo sapiens, UniProt P06276). Put plainly: biochemical. The class given is biochemical. To be noted: for IC50: means of at least three determinations, read-out: IC50 hBChE.
The target in a further assay is eeAChE (Electrophorus electricus, UniProt O42275). Put plainly: biochemical. To be noted: eeAChE from electric eel; read-out: IC50 AChE (eeAChE).
The next assay has as its target hAChE (Homo sapiens, UniProt P22303). Put plainly: biochemical. To be noted: hAChE recombinant expressed; for IC50: read-out: IC50 AChE (hAChE). It is filed as biochemical.
A further assay addresses T1, hCB1R (Homo sapiens, UniProt P21554).
T1 construct: expressed in transfected cells; host or cells: CHO cells stably expressing hCB1R
The class given is binding.

Another assay addresses Aβ42 (Homo sapiens, UniProt P05067). Put plainly: Aβ42 self-aggregation, thioflavin-T fluorescence assay. To be noted: for inhibition at 50 µM: 50 µM inhibitor and 50 µM Aβ42, mean ± SEM, read-out: % inhibition Aβ aggregation self-induced; for inhibition of Aβ42 self-aggregation (in words): 1/1 ratio with Aβ42. The class given is biochemical.
The target of assay [1] is hAChE-induced Aβ40 aggregation (Homo sapiens, UniProt P22303). In words: biochemical. It is filed as biochemical. To be noted: for inhibition at 100 µM: [I] = 100 µM, Aβ40/hAChE ratio 100/1, mean ± SEM, read-out: % inhibition Aβ aggregation AChE-induced.
hAChE-induced Aβ40 aggregation, sequence (P22303 32-614): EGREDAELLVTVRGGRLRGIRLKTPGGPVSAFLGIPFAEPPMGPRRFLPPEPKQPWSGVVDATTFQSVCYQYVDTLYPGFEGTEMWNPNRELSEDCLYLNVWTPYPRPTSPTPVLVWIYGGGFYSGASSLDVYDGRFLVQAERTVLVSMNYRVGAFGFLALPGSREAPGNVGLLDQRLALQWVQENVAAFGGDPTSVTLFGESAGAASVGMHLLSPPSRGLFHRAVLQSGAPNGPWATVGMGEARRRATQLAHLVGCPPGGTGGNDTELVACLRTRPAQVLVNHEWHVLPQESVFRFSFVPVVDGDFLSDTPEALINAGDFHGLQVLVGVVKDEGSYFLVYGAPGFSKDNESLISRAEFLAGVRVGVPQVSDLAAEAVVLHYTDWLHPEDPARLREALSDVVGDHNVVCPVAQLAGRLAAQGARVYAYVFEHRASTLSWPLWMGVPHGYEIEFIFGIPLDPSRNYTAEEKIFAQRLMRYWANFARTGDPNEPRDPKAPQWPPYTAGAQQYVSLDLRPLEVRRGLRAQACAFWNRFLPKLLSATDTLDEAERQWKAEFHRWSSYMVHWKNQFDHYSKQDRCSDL
Assay [2] addresses T2, hCB2R (Homo sapiens, UniProt P34972).
T2 construct: expressed in transfected cells; host or cells: HEK cells stably expressing hCB2R
It is filed as cell-based.

The subject of assay [3] is murine microglial cell line N9. Put plainly: Microglia activation: LPS-activated N9 cells, M1/M2 markers (Griess reaction, western blot). It is filed as cell-based.
In a further assay the test system is HT-22 cells. The class given is cell-based, murine.
Assay [4] deals with Aβ25-35-induced learning impairments in mice. To be noted: mouse, ip; for dose that significantly prevented Aβ25-35-induced learning impairments / most effective dose (completely prevented Aβ25-35 impairments in both tests): in vivo.
For assay [5], the target named is T2, hCB2R. Put plainly: biochemical. It is filed as binding.
The mark [6] stands for this setting: N9 cells, 100 ng/mL LPS, 1-5 µM compound, 24 h, M1 marker.
Where [7] appears, read: N9 cells, 100 ng/mL LPS, 1-5 µM compound, 24 h, M2 marker.

Entries after “also recorded” stand apart in the source; their conditions may differ. Read-outs that look alike come from different tables or passages of the source.

hBChE, sequence (P06276 29-602): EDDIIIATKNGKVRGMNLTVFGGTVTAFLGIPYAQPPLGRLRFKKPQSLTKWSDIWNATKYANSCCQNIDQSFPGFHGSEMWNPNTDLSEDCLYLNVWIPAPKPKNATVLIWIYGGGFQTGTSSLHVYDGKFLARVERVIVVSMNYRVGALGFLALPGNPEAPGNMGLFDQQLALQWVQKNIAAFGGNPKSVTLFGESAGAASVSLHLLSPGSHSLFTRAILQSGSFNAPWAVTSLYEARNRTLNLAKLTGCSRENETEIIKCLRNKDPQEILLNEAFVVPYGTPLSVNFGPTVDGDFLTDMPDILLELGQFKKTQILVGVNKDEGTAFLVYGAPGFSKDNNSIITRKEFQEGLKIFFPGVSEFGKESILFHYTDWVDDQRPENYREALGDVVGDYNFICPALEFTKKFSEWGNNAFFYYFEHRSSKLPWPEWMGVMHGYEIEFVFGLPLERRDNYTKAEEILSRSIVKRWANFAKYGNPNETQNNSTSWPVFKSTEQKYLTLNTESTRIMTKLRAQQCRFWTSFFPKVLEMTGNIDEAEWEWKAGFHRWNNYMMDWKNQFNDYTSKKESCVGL
Aβ42, sequence (P05067 672-713): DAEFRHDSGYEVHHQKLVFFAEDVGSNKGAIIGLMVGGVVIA
T2 sequence (P34972 whole entry): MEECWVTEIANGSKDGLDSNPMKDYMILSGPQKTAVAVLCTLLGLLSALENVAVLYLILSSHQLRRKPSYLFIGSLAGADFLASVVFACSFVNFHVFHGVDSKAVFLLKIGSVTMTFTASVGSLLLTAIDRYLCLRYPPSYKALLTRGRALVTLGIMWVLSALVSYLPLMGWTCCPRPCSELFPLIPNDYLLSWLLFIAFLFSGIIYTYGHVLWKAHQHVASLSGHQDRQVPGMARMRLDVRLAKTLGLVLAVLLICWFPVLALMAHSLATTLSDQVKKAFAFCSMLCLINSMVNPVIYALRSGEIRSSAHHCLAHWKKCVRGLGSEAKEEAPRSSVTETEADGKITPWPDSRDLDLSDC
hAChE, sequence (P22303 32-614): as the sequence (P22303 32-614) above
eeAChE, sequence (O42275 24-633): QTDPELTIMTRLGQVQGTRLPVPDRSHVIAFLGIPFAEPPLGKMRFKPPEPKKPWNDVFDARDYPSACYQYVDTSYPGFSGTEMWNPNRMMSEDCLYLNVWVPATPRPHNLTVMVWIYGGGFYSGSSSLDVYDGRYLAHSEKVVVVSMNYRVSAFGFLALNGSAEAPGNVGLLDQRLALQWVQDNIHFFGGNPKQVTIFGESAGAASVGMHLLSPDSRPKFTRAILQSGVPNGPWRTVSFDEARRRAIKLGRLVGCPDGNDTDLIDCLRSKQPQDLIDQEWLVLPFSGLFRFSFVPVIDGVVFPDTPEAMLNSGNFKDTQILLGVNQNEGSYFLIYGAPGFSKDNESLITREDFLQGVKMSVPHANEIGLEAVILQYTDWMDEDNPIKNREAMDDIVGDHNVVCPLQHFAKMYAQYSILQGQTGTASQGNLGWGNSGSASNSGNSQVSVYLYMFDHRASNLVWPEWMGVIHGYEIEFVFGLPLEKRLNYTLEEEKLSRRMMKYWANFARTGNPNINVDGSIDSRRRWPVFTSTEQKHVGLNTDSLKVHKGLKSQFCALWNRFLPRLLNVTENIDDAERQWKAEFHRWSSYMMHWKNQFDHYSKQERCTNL
T1 sequence (P21554 whole entry): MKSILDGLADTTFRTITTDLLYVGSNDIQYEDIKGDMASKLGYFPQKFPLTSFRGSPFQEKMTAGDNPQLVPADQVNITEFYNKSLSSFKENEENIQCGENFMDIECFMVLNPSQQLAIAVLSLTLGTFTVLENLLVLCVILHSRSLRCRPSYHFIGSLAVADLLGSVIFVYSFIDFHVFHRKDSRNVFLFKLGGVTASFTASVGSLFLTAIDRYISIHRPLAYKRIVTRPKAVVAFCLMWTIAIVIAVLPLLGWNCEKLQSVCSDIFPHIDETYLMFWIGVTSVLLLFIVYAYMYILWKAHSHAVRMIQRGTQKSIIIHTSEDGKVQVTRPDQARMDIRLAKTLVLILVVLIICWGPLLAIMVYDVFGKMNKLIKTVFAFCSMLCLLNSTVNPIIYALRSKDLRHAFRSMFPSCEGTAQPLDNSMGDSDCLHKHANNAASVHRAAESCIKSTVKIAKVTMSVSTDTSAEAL

Broadly, the IC50 is the point on the concentration scale where inhibition reaches its midpoint. The inhibition is how much of the control response was suppressed. Consider `CCOc1ccc(Cc2nc3cc(C(=O)N(CC)CC)ccc3n2CCCCCCNc2c3c(nc4ccccc24)CCCC3)cc1` [compound 3e, 2-(4-Ethoxybenzyl)-N,N-diethyl-1-(6-((1,2,3,4-tetrahydroacridin-9-yl)amino)hexyl)-1H-benzo[d]imidazole-5-carboxamide], for which the “inhibitory potency towards hBChE compared to tacrine” value at hBChE (compared to tacrine) is given as “increased inhibitory potency”. Further, the half-inhibitory concentration (IC50) at hBChE (hBChE from human serum) came to 1.9 nM. For the same compound, the IC50 at eeAChE is 0.5 nM. Also, at hAChE, the “pIC50 ± SD AChE (hAChE)” value is given as 7.1 ± 0.1 and the IC50 was found to be 86.1 nM. Besides, the “[^3H]CP 55,940 displ. @10 µM hCB1R” value on hCB1R is on record as 17%. Besides, at Aβ42, the inhibition at 50 µM was determined as 81.5 ± 2% and the “inhibition of Aβ42 self-aggregation (in words)” value is “pronounced inhibition; also recorded: strongly inhibited”. For the same compound, in assay [1], the “inhibition of AChE-induced Aβ40 aggregation (in words)” value was “pronounced inhibition; also recorded: significantly reduce” and the inhibition at 100 µM came out at 62.9 ± 5.4%. For the same compound, on hCB2R [2], the MIF gene expression entry is “reduced”, the STAT-3 gene expression result is “reduced” and the “behavior at the hCB2R” value is given as “maintained their agonist behavior”. For the same compound, in assay [3] (LPS-activated microglial cells), the immunomodulatory effect entry is “immunomodulatory effect”. Besides, the “NO release / nitrite accumulation” value in assay [3] (N9 cells, 100 ng/mL LPS, 1-5 µM compound, 24 h) is recorded as “reduced; also recorded: strongly reduces”. Moreover, in [3] (setting [6]), the IL1β release entry is reported as “significantly decrease; also recorded: strongly reduces” and the iNOS expression entry was “significantly decrease; also recorded: strongly reduces”. In addition, in [3] (setting [7]), the TGFβ2 expression entry is “not reduced; also recorded: no parallel change” and the TREM2 expression entry was “not reduced; also recorded: no parallel change”. Also, the “neuroprotective behavior (in words)” value in the assay on HT-22 cells is reported as “low neuroprotective behavior; also recorded: showed neuroprotection”. In [4], the “dose that significantly prevented Aβ25-35-induced learning impairments” value is recorded as 0.3 mg/kg, the “most effective dose (completely prevented Aβ25-35 impairments in both tests)” value is 0.3 mg/kg and the “dose given for the high in vivo efficacy (conclusion)” value worked out at 0.1 mg/kg.

One may read the Ki as the equilibrium dissociation constant of an inhibitor or competing ligand from its target. Turning to `CCOc1ccc(Cc2nc3cc(C(=O)NCCSSCCNc4c5c(nc6ccccc46)CCCC5)ccc3n2CCC(C)C)cc1` [compound 8, 2-(4-Ethoxybenzyl)-1-isopentyl-N-(2-((2-((1,2,3,4-tetrahydroacridin-9-yl)amino)ethyl)disulfaneyl)ethyl)-1H-benzo[d]imidazole-5-carboxamide], at hBChE (hBChE from human serum), the “pIC50 ± SD hBChE” value came to 7.1 ± 0.1 and the IC50 turned out to be 77 nM. Also, the IC50 on eeAChE was 44 nM. In addition, on hAChE, the “pIC50 ± SD AChE (hAChE)” value is on record as 7.9 ± 0.1 and the IC50 came out at 13.4 nM. At hCB2R [5], the Ki was 6310 nM and the “affinity towards hCB2R (in words)” value is on record as “no significant effect on affinity”. Moreover, the Ki at hCB2R [5] (read-out: Ki hCB2R) amounted to 6800 nM. Also, the “[^3H]CP 55,940 displ. @10 µM hCB1R” value on hCB1R came out at 45%. For the same compound, at Aβ42, the inhibition at 50 µM came to 83.4 ± 6.4% and the “inhibition of Aβ42 self-aggregation (in words)” value is listed as “strongly inhibited”. In [1], the “inhibition of AChE-induced Aβ40 aggregation (in words)” value is recorded as “not able to significantly inhibit” and the inhibition at 100 µM came out at 5 ± 2.6%. In the assay with HT-22 cells, the “neuroprotective behavior (in words)” value is listed as “neuroprotection comparable to the positive control quercetin; also recorded: showed neuroprotection”. Further, in [4], the “dose that significantly prevented Aβ25-35-induced learning impairments” value turned out to be 0.3 mg/kg, the “most effective dose (completely prevented Aβ25-35 impairments in both tests)” value is given as 0.3 mg/kg and the “dose given for the high in vivo efficacy (conclusion)” value came to 0.1 mg/kg.
